target: Recombinant human HSD17B13 enzyme (Homo sapiens (Human), UniProt Q7Z5P4); experiment: HSD17b13 NAD(P)H-Glo Biochemical Assay; details: 50 uM estradiol, 1 mM NAD+; read-out: HSD17β13 IC50
Procedure: Recombinant human HSD17B13 enzyme. Substrate: estradiol (Sigma β-Estradiol E8875), 100 mM in DMSO. […] Assay buffer final concentration: 20 mM Tris pH7.4 with 0.002% Tween-20 and 0.02% BSA. […] Enzymatic activity detected by NAD(P)H-Glo™ Detection System (Promega G9062).
Inhibitor compounds were serially diluted in DMSO and then further diluted in assay buffer to a 10× concentration consisting of 1% DMSO.
HSD17b13 enzyme was diluted in 1× assay buffer to the desired enzyme concentration based on the specific activity of the enzyme lot. 20 uL of diluted enzyme was added to each well along with 2.5 uL of 10× inhibitor solution. Assay plate was incubated at RT for 20 minutes, and then 2.5 uL of a 10× substrate/cofactor mix was added to each well for a final concentration of 50 uM estradiol and 1 mMNAD+. Assay plate was incubated at 37° C. for 3 hours. NAD(P)H-Glo™ Detection System reagents were prepared according to manufacturer's specifications, and 25 uL was added to each well. After incubating for 1 hour at RT, luminescence was measured.

Sequence of Recombinant human HSD17B13 enzyme (Q7Z5P4 20-300): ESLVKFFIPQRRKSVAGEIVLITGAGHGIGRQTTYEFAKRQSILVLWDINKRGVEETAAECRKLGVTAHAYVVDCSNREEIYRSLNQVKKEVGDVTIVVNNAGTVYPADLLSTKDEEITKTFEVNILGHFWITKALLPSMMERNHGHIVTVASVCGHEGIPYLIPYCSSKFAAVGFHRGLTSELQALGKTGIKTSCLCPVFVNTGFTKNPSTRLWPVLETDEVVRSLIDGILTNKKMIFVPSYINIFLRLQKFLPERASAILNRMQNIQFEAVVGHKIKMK

SMILES | IC50
CS(=O)(=O)N1CCN(c2ccc3c(cnn3-c3cc(O)cc(C(F)(F)F)c3)c2)CC1 [Compound 28.07, 3-(5-(4-(Methylsulfonyl)-piperazin-1-yl)-1H-indazol-1-yl)-5-(trifluoromethyl)phenol] | 0.1 to 1 µM
CS(=O)(=O)N1CCN(c2cc3cnn(-c4cc(O)c(F)c(F)c4)c3cc2C2CC2)CC1 [Compound 21.49, 5-(6-Cyclopropyl-5-(4-(meth-ylsulfonyl)piperazin-1-yl)-1H-indazol-1-yl)-2,3-difluoro-phenol] | 0.1 to 1 µM
Oc1cc(-n2ncc3cc(-c4ccc(O)c(Cl)c4)ccc32)ccc1F [Compound 4, 2-Chloro-4-(1-(4-fluoro-3-hydroxyphenyl)-1H-indazol-5-yl)phenol] | 0.1 to 1 µM
N#Cc1ccc(-c2ccc3c(cnn3-c3ccc(F)c(O)c3)c2)c(Cl)c1 [Compound 5.11, 3-Chloro-4-(1-(4-fluoro-3-hydroxyphenyl)-1H-indazol-5-yl)benzonitrile] | 0.1 to 1 µM
CS(=O)(=O)N1CCN(c2cc3cn(-c4ccc(F)c(O)c4F)nc3cn2)CC1 [Compound 19.08, 2,6-Difluoro-3-(5-(4-(methylsulfonyl)piperazin-1-yl)-2H-pyrazolo[3,4-c]pyridine-2-yl)phenol] | 1 to 30 µM
CN(C)c1nn(-c2cc(C(F)(F)F)c(F)c(O)c2F)c2ccc(N(C)C3CCOCC3)cc12 [Compound 19.76, 3-(3-(Dimethylamino)-5-(methyl(tetrahydro-2H-pyran-4-yl)amino)-1H-indazol-1-yl)-2,6-difluoro-5-(trifluoromethyl)phenol] | 0.1 to 1 µM
CC(C)S(=O)(=O)NC1CN(c2cc3cnn(-c4cc(O)c(F)c(F)c4)c3cc2Cl)C1 [Compound 21.33, N-(1-(6-Chloro-1-(3,4-difluoro-5-hydroxyphenyl)-1H-indazol-5-yl)azetidin-3-yl)propane-2-sulfonamide] | 0.1 to 1 µM
CS(=O)(=O)N1CCN(c2cc3cn(-c4cc(O)c(Cl)c(F)c4)nc3cn2)CC1 [Compound 19.18, 2-Chloro-3-fluoro-5-(5-(4-(methylsulfonyl)piperazin-1-yl)-2H-pyrazolo[3,4-c]pyridine-2-yl)phenol] | 0.1 to 1 µM
CS(=O)(=O)N1CCN(c2ccc3c(cnn3-c3nccc(O)c3F)c2)CC1 [Compound 28.06, 3-Fluoro-2-(5-(4-(methyl-sulfonyl)piperazin-1-yl)-1H-indazol-1-yl)pyridin-4-ol] | 1 to 30 µM
CS(=O)(=O)N1CCN(c2cc3cn(-c4ccc(Cl)c(O)c4)nc3cn2)CC1 [Compound 19.15, 2-Chloro-5-(5-(4-(methylsulfonyl)piperazin-1-yl)-2H-pyrazolo[3,4-c]pyridine-2-yl)phenol] | 1 to 30 µM
Cc1ccc(-c2ccc3c(cnn3-c3ccc(F)c(O)c3)c2)cc1 [Compound 4.07, 2-Fluoro-5-(5-(p-tolyl)-1H-indazol-1-yl)phenol] | 0.1 to 1 µM
CC1(C)CN(S(C)(=O)=O)CCN1c1cc2cn(-c3cc(O)c(F)c(C(F)(F)F)c3)nc2cn1 [Compound 19.05, 5-(5-(2,2-Dimethyl-4-(methylsulfonyl)piperazin-1-yl)-2H-pyrazolo[3,4-c]pyridine-2-yl)-2-fluoro-3-(trifluoromethyl)phenol] | 0.1 to 1 µM
Oc1cc(-n2nc(Cl)c3cc(-c4ccc(O)c(Cl)c4)ccc32)ccc1F [Compound 4.14, 2-Chloro-4-(3-chloro-1-(4-fluoro-3-hydroxyphenyl)-1H-indazol-5-yl)phenol] | 0.1 to 1 µM
Oc1cc(-n2ncc3cc(Nc4ccc(O)c(Cl)c4)ccc32)ccc1F [Compound 23, 2-Chloro-4-((1-(4-fluoro-3-hydroxyphenyl)-1H-indazol-5-yl)amino)phenol] | 0.1 to 1 µM
CS(=O)(=O)C1CN(c2ccc3c(cnn3-c3cc(O)c(F)c(F)c3)c2)C1 [Compound 21.31, 2,3-Difluoro-5-(5-(3-(methyl-sulfonyl)azetidin-1-yl)-1H-indazol-1-yl)phenol] | 0.1 to 1 µM
Oc1cc(-n2ncc3cc(-c4ccc(O)c(Cl)c4)ccc32)c(F)cc1F [Compound 8.02, 5-(5-(3-Chloro-4-hydroxyphenyl)-1H-indazol-1-yl)-2,4-difluorophenol] | 0.1 to 1 µM

Reference: US20240034736A1, “HSD17B13 INHIBITORS AND USES THEREOF” (FL2022-001, Inc., priority 2020, published 2024)
